The series has as its system human fibroblast-like synoviocytes from healthy donors (HFLS-N). The series can be described thus: Viability test, HFLS-N cells. In kind it is cell-based. The note with it: 6 hours, IL-1β 10 ng/mL, VR23 2.5-10 μM. As to the method: The values presented are the mean±SEM (n=3).
The CCK-8 assay was used to count viable cells under the various treatment conditions. Briefly, cells were cultured in 11 columns of a 96-well clustered plate, with 5,000 cells in 100 μL of culture medium per well, excluding one column for a media-only control. The plate was incubated overnight at 37° C. in the humidified conditions, followed by treatment with test compounds diluted in the culture medium (10 μL). Each column was treated with a different condition so that each treatment could have 8 repeats. […] The absorbance was measured using an automatic plate reader (Synergy H4 Hybrid Multi-Mode Microplate Reader, BioTek, Montreal, Canada) at 450 nm wavelength. The cell viability of each treatment sample was determined by using the following equation (%)=(Abstrtmt-Absmedia)/(AbsuT-Absmedia)*100, where Abstrtmt is the absorbance value of cells with the various treatment conditions; Absmedia is the absorbance of the well containing media only; AbsuT is the absorbance of the wells with untreated cells.
This finding was extended to human cells relevant to autoimmune diseases. […] Cytokine levels in cell culture supernatants were determined by a single-analyte ELISA. […] The cytokine secretion was measured in cell culture supernatants by a single-analyte ELISA.

Cell viability data for one compound are collected here from US11357774B2, “Use of a quinoline sulfonyl compound for treatment of inflammation, inflammatory disorders, autoimmune disorders and malaria” (priority 2019, dated 2022).

On to `O=[N+]([O-])c1ccc(S(=O)(=O)N2CCN(c3ccnc4cc(Cl)ccc34)CC2)c([N+](=O)[O-])c1` [VR23, 7-chloro-4-(4-(2,4-dinitrophenylsulfonyl)piperazin-1-yl)quinoline], for which the cell viability result is “none of the conditions examined significantly affected the viability”.
